Km data for 1 compound are collected here from paper PMC8126724, “Infant-Associated Bifidobacterial β-Galactosidases and Their Ability to Synthesize Galacto-Oligosaccharides” (Frontiers in Microbiology, 2021).

In one test the test system is T1, BgaE.
T1 construct: gene B8809_0611; tetramer
Kind of test: o-nitrophenol release, A420. It is filed as biochemical, Bifidobacterium longum subsp. longum. The conditions noted are these: 0.1 M sodium acetate pH 6.5, 40 °C; unit mM, not in table. The source says: o-nitrophenol release, A420 on BgaE

Another test has as its system T2, BgaD.
T2 construct: gene B8809_0415; His6-tagged, expressed in Lactococcus lactis (pNZ8150), Ni-purified; trimer
The experiment in a line: o-nitrophenol release, A420. It is filed as biochemical, Bifidobacterium longum subsp. longum. The conditions noted are these: 0.1 M sodium acetate pH 6.5, 40 °C; unit mM, not in table. An excerpt: o-nitrophenol release, A420 on BgaD

The Km is the concentration of substrate that gives half-maximal velocity.

With `O=[N+]([O-])c1ccccc1O[C@@H]1O[C@H](CO)[C@H](O)[C@H](O)[C@H]1O` [ONPG], the Km worked out at 11.1 mM in the test on BgaE and 17 mM with BgaD.
